In experiment [1] the test system is Capan2 pancreatic adenocarcinoma cells. Briefly: SRB assay (48 h) on Capan2 cells. The experiment is classed as cell-based. As for the experimental part: 3 × 10^3 Capan2 cells, 2 × 10^3 Saos cells and 8 × 10^3 L428 were plated to 96 well plates. Cells were treated with the compounds in the concentrations for 48 h. Then for Capan2 and Saos SRB assay was performed, L428 cells were counted using a Burker chamber. Data is represented as average ± SD, from three biological replicates; individual assays were performed in duplicates. Values were normalized for vehicle treated cells, absorbance for vehicle treated cells equals to 1. Normality was checked using the Shapiro-Wilk test. The Saos Os-7 dataset was normalized using the Box-Cox method, other datasets had normal distribution. Each complex was individually assessed for statistical significance using One-way ANOVA test followed by Dunnett’s post hoc test; all values were compared to the values of the lowest concentration. For better visibility the p values are presented in an excel sheet at https://figshare.com/s/2c942a812caea8869a67. Non-linear regression was performed on the Capan2 and Saos datasets.
Capan2 cells were maintained in MEM, 10% fetal bovine serum, 1% Penicillin/Streptomycin, 2 mM Glutamine.
(§1) The assay was performed similar to ([Kovács et al., 2019]). Cells were seeded in 96 well plates the day before the assay. Cells were treated with the compounds for 48 h. Cells were fixed with 10% trichloroacetic acid (TCA). Fixed cells were washed in distilled water 3 times followed by staining with SRB (0.4 m/V% dissolved in 1% acetic acid) for 10 min. Stained cells were washed in 1% acetic acid 5 times; acetic acid was removed and cells were left to dry. Protein-bound SRB was released by adding 100 µl 10 mM Tris base. Plates were measured in a plate photometer (Thermo Scientific Multiscan GO spectrophotometer, Waltham, MA, United States) at 540 nm. On each plate wells were designed to contain vehicle-treated cells. In calculations the readings for these wells was considered as 1 and all readings were expressed relative to these values.
(§2) Statistical analysis was performed using 8.0.1 version of Graphpad Prism. Values were tested for normal distribution using the D’Agostino and Pearson normality test. When necessary, values were log normalized or were normalized using the Box-Cox normalization method ([Box and Cox, 1964]) as indicated in the figure captions. Non-linear regression was performed using the built-in “[Inhibitor] vs. response—Variable slope (four parameters), least square fit” utility of Graphpad that yielded IC50 and Hill slope values.

The next experiment deals with ID8 ovarian cancer cells. Description: SRB assay (48 h) on ID8 cells. The experiment is classed as cell-based. On the procedure:
3 × 10^3 A2780 cells, 2 × 10^3 ID8 cells and 4 × 10^3 primary fibroblasts were plated to 96 well plates. Cells were treated with the compounds in the concentrations indicated for either 4 h for an MTT assay or for 48 h for an SRB assay. Data is represented as average ± SD, from three biological replicates; individual assays were performed in duplicates. Values were normalized for vehicle treated cells, absorbance for vehicle treated cells equals to 1. Statistical significance was assessed using two-way ANOVA test comparing the free ligand and each complex as a complex-ligand pair. Before the test normality was assessed using the D’Agostino-Pearson test. The ID8 SRB Ir-7+L-7 dataset had lognormal distribution. […] All other datasets had normal distribution. For better visibility the p values are presented in an excel sheet at https://figshare.com/s/2c942a812caea8869a67. Non-linear regression was performed on the A2780 SRB and the ID8 SRB datasets.
ID8 cells were cultured in high glucose DMEM (4.5 g/L glucose) medium supplemented with 4% fetal calf serum, 2 mM glutamine, 1% penicillin-streptomycin, 1% ITS supplement (I3146).
as §1, §2

In experiment [2] the test system is vancomycin-resistant Enterococcus (VRE) clinical isolates. Briefly: Broth microdilution MIC, clinical VRE isolates. The experiment is classed as cell-based, E. faecium. The note with it: for MIC against clinical VRE isolates (as a group): 3 clinical VRE isolates; for MIC, VRE 25 051: clinical isolate 25 051, nephrostoma; for MIC, VRE 25 051 / MIC, VRE 25 498 / MIC, VRE 27 085: 2018; for MIC, VRE 25 498: clinical isolate 25 498, rectal swab; for MIC, VRE 27 085: clinical isolate 27 085, wound. On the procedure: The MIC values of the complexes were determined against the reference strains of S. aureus (ATCC29213) and E. faecalis. (ATCC29212) and against clinical VRE and MRSA isolates by microdilution assays (repeated at least twice in duplicates) as described in Materials and Methods. The numbers indicate how many isolates were susceptible to the compound out of those tested; i.e., 1/6 stands for 1 isolate was susceptible out of 6 tested. […] Cells were harvested and lysed. Cellular proteins was separated on a 10% SDS-PAGE gel and were blotted. Blots were probed with 4HNE antibody (top blot), the lower blot was stained with amido black. Arrows point at band of interest. Experiments were repeated three times and a representative blot is shown. On the blots brightness and contrast were adjusted. […] Each was matched to a substance and strain by its position over the x-axis categories. / Ir-7: ND and 0/3 (left plot) and ND and 0/6 (right plot) were matched to E. faecalis/VRE and S. aureus/MRSA by position only.
We used a set of clinical isloates of S. aureus and E. faecium that were collected at the Medical Center of the University of Debrecen (Hungary) between 01. 01. 2018.—31. 12. 2020. The clinical isolates were identified using a Microflex MALDI-TOF mass spectrometer (Bruker, Billerica, MA, United States). Antibiotic susceptibility of the isolates was tested following the European Committee on Antimicrobial Susceptibility Testing ([EUCAST, 2021]) guidelines valid at the time of collection.
Microdilution experiments were performed according to the standards of EUCAST ([EUCAST, 2021]). […] The inoculated plates were incubated for 24 h at 37°C then were assessed visually. […] All experiments were performed at least twice in duplicates.

Turning to `Cc1c(C)c(C)[c-](C)c1C.F[P-](F)(F)(F)(F)F.O=C(OCC1OC(n2cc(-c3ccc4ccccc4n3)nn2)C(OC(=O)c2ccccc2)C(OC(=O)c2ccccc2)C1OC(=O)c1ccccc1)c1ccccc1.[Cl][Ir+2]` (mixture of isomers) [Ir-7], in experiment [1], the “Capan2 SRB Max. (maximal inhibition)” value is 48.83% and the half-inhibitory concentration (IC50) is 1.93 µM. Also, in the experiment on ID8 ovarian cancer cells, it took 0.799 µM to reach half-maximal inhibition (IC50), the “ID8 SRB IC50” value is recorded as “submicromolar or low micromolar” and the “ID8 SRB Max. (maximal inhibition)” value was above 90%. In addition, in experiment [2], the “MIC against clinical VRE isolates (as a group)” value (“MIC … (as a group)” below) is “no activity”; the “MIC, VRE 25 051” value is listed as 40< µM; the “MIC, VRE 25 498” value is 40< µM; the “MIC, VRE 27 085” value is given as 40< µM.

Turning to `Cc1ccc(C(C)C)cc1.F[P-](F)(F)(F)(F)F.O=C(OCC1OC(n2cc(-c3ccc4ccccc4n3)nn2)C(OC(=O)c2ccccc2)C(OC(=O)c2ccccc2)C1OC(=O)c1ccccc1)c1ccccc1.[Cl][Os+]` (mixture of isomers) [Os-7], in experiment [1], the “Capan2 SRB Max. (maximal inhibition)” value is listed as 59.11% and half-maximal inhibition (IC50) required 1.35 µM. In the experiment with ID8 ovarian cancer cells, the IC50 was 0.359 µM, the “ID8 SRB IC50” value is given as “submicromolar or low micromolar” and the “ID8 SRB Max. (maximal inhibition)” value is recorded as above 90%. Moreover, in experiment [2], the “MIC … (as a group)” value was 10 µM; the “MIC, VRE 25 051” value is reported as 10 µM; the “MIC, VRE 25 498” value was 10 µM; the “MIC, VRE 27 085” value is 10 µM.

As for `Cc1ccc(C(C)C)cc1.F[P-](F)(F)(F)(F)F.O=C(OCC1OC(n2cc(-c3ccc4ccccc4n3)nn2)C(OC(=O)c2ccccc2)C(OC(=O)c2ccccc2)C1OC(=O)c1ccccc1)c1ccccc1.[Cl][Ru+]` (mixture of isomers) [Ru-7], in experiment [1], the “Capan2 SRB Max. (maximal inhibition)” value is on record as 39.80% and the midpoint of inhibition, the IC50, lay at 1.39 µM. Further, in the experiment on ID8 ovarian cancer cells, half-maximal inhibition (IC50) required 1.14 µM, the “ID8 SRB IC50” value is recorded as “submicromolar or low micromolar” and the “ID8 SRB Max. (maximal inhibition)” value is above 90%. Besides, in experiment [2], the “MIC … (as a group)” value was determined as 5 µM; the “MIC, VRE 25 051” value came out at 5 µM; the “MIC, VRE 25 498” value is listed as 5 µM; the “MIC, VRE 27 085” value came out at 5 µM.

These data come from PMC9923724, “Half sandwich-type osmium, ruthenium, iridium and rhodium complexes with bidentate glycosyl heterocyclic ligands induce cytostasis in platinum-resistant ovarian cancer cells and bacteriostasis in Gram-positive multiresistant bacteria” (Frontiers in Chemistry, 2023).
